This is an account of results in ChEMBL document CHEMBL5352392, “Design, synthesis, and biological evaluation of novel dual inhibitors of heat shock protein 90/mammalian target of rapamycin (Hsp90/mTOR) against bladder cancer cells” (Eur J Med Chem, 2022).

One assay has as its system SW780. Kind of assay: Antiproliferative activity against human SW780 cells assessed as inhibition of cell proliferation at 1 uM by CCK8 assay relative to control. Format: functional. In general terms: Formazan colour is commonly taken as a measure of viable cells.
The test system of another assay is T-24. Kind of assay: Antiproliferative activity against human T24 cells assessed as inhibition of cell proliferation at 1 uM by CCK8 assay relative to control. In kind it is functional.
The subject of the next assay is J82. Description: Antiproliferative activity against human J82 cells assessed as inhibition of cell proliferation at 1 uM by CCK8 assay relative to control. Format: functional.
Assay [1] concerns the target Serine/threonine-protein kinase mTOR (Homo sapiens, UniProt P42345). Kind of assay: Inhibition of mTOR (unknown origin) at 100 nM by kinase profiling assay relative to control.
The target of another assay is Heat shock protein HSP90 (Homo sapiens, UniProt P07900+P08238). Particulars: dose 100.0 nM.

Description for Heat shock protein HSP90: Inhibition of Hsp90 (unknown origin) at 100 nM by TR-FRET assay relative to control

For the compound `CN1CCc2c(sc3nc(-c4ccncc4)nc(N4CCOCC4)c23)C1`, the inhibition at 1 µM in the assay with SW780 came out at 26.3%; with T-24, 30.5%; with J82 it was 37.6%. For the same compound, the inhibition in assay [1] is 44.3%.

For `CC(C)c1cc(C(=O)N2CCc3c(sc4nc(N5CCOCC5)nc(N5CCCC5)c34)C2)c(O)cc1O`, the inhibition at 1 µM in the assay with SW780 stood at 46%; in the assay on T-24, 57.7%; with J82, 47.9%. In addition, the values for the inhibition (in assay [1]; against Heat shock protein HSP90) were 40.9% and 53%, respectively.

As for `CC(C)c1cc(C(=O)N2CCc3c(sc4nc(N5CCC(F)(F)CC5)nc(N5CCOCC5)c34)C2)c(O)cc1O`, the inhibition at 1 µM in the assay with SW780 stood at 37.9%; with T-24 it was 34.4%; in the assay with J82 it was 45%. Also, the inhibition in assay [1] amounted to 41.3%; at Heat shock protein HSP90 it was 36.3%.

As to `CC(C)c1cc(C(=O)N2CCc3c(sc4nc(N5CCOCC5)nc(N5CCC(N(C)C)CC5)c34)C2)c(O)cc1O`, the inhibition at 1 µM in the assay with SW780 was determined as 64.5%; with T-24 it was 55.8%; in the assay with J82, 52.7%. In addition, the inhibition amounted to 76.7% in assay [1] and 45.5% on Heat shock protein HSP90.

Take `CC(C)c1cc(C(=O)N2CCc3c(sc4nc(-c5ccncc5)nc(N5CCOCC5)c34)C2)c(O)cc1O`: the inhibition at 1 µM with SW780 is 39.5%; in the assay on T-24 it was 47.1%; in the assay with J82, 37.8%. The figures for the inhibition (in assay [1]; on Heat shock protein HSP90) were 49.8% and 35.4%, respectively.

Consider `CC(C)c1cc(C(=O)N2CCc3c(sc4nc(-c5ccc(NC(=O)Nc6ccccc6)cc5)nc(N5CCOCC5)c34)C2)c(O)cc1O`, for which the figures for the inhibition at 1 µM in the assay on SW780, in the assay on T-24 and with J82 were 66.2%, 60.1% and 79.7%, respectively. For the same compound, the inhibition is 74.5% in assay [1] and 59.2% against Heat shock protein HSP90.

In the case of `CCNC(=O)N(C(=O)NCC)c1ccc(-c2nc(N3CCOCC3)c3c4c(sc3n2)CN(C(=O)c2cc(C(C)C)c(O)cc2O)CC4)cc1`, the values for the inhibition at 1 µM with SW780, with T-24 and in the assay with J82 were 63.2%, 61% and 53.4%, respectively. The values for the inhibition (in assay [1]; at Heat shock protein HSP90) were 53.5% and 55.7%, respectively.

Turning to `CN1CCc2c(sc3nc(-c4ccc(N)cc4)nc(N4CCOCC4)c23)C1`, the inhibition at 1 µM in the assay with SW780 came to 20.7%; with T-24 it was 32.8%; in the assay on J82 it was 50.4%. The inhibition in assay [1] amounted to 66.2%.

On to `CCNC(=O)Nc1ccc(-c2nc(N3CCOCC3)c3c4c(sc3n2)CN(C(=O)c2cc(C(C)C)c(O)cc2O)CC4)cc1`, for which the inhibition at 1 µM turned out to be 70.2% in the assay with SW780, 57.9% with T-24 and 67.6% in the assay on J82. In addition, the inhibition was 68.6% in assay [1] and 62.2% at Heat shock protein HSP90.

`CC(C)c1cc(C(=O)N2CCc3c(sc4nc(-c5ccc(NC(=O)N6CCOCC6)cc5)nc(N5CCOCC5)c34)C2)c(O)cc1O`: the inhibition at 1 µM in the assay with SW780 worked out at 49.8%; in the assay with T-24 it was 44.8%; in the assay on J82 it was 67.2%. Besides, the inhibition in assay [1] stood at 53.7%; on Heat shock protein HSP90 it was 58.4%.

With `CC(C)c1cc(C(=O)N2CCc3c(sc4nc(-c5ccc(N)cc5)nc(N5CCOCC5)c34)C2)c(O)cc1O`, the inhibition at 1 µM with SW780 was found to be 66.2%; in the assay with T-24, 70.6%; in the assay on J82, 64.4%. In addition, the inhibition is 67.4% in assay [1] and 57.8% against Heat shock protein HSP90.

Turning to `CC(C)c1cc(C(=O)N2CCc3c(sc4nc(-c5ccc(NC(=O)Nc6cccc(F)c6)cc5)nc(N5CCOCC5)c34)C2)c(O)cc1O`, the results for the inhibition at 1 µM in the assay with SW780, with T-24 and with J82 were 59.9%, 63.8% and 58.8%, respectively. The inhibition was found to be 47.7% in assay [1] and 64.9% against Heat shock protein HSP90.

As for `CC(C)c1cc(C(=O)N2CCc3c(sc4nc(N5CCCC5)nc(N5CCOCC5)c34)C2)c(O)cc1O`, the inhibition at 1 µM in the assay on SW780 is 42.1%; in the assay on T-24, 54%; with J82 it was 43.1%. The inhibition is 52.3% in assay [1] and 46.6% on Heat shock protein HSP90.

For `CC(C)c1cc(C(=O)N2CCc3c(sc4nc(-c5ccc(NC(=O)Nc6ccccc6F)cc5)nc(N5CCOCC5)c34)C2)c(O)cc1O`, the inhibition at 1 µM in the assay on SW780 was 83.7%; with T-24, 70.1%; in the assay on J82 it was 78.7%. For the same compound, the values for the inhibition (in assay [1]; on Heat shock protein HSP90) were 74.8% and 70%, respectively.

On to `CC(C)c1cc(C(=O)N2CCc3c(sc4nc(N5CCOCC5)nc(N5CCOC(F)(F)C5)c34)C2)c(O)cc1O`, for which the inhibition at 1 µM in the assay on SW780 was determined as 37.1%; in the assay on T-24 it was 42.1%; in the assay on J82, 41.4%. The inhibition is 44.1% in assay [1] and 27.5% against Heat shock protein HSP90.

`CC(C)c1cc(C(=O)N2CCc3c(sc4nc(N5CCOCC5)nc(N5CCCCC5)c34)C2)c(O)cc1O`: the values for the inhibition at 1 µM in the assay on SW780, in the assay with T-24 and with J82 were 47.6%, 57.1% and 55.4%, respectively. For the same compound, the inhibition came to 56.6% in assay [1] and 54.9% against Heat shock protein HSP90.

With `CC(C)c1cc(C(=O)N2CCc3c(sc4nc(-c5ccc(NC(=O)Nc6ccc(F)cc6)cc5)nc(N5CCOCC5)c34)C2)c(O)cc1O`, the inhibition at 1 µM in the assay on SW780 was determined as 69.8%; with T-24, 76.8%; with J82, 57.8%. Besides, the inhibition in assay [1] stood at 77.4%; against Heat shock protein HSP90 it was 63.2%.

In the case of `CC(C)c1cc(C(=O)N2CCc3c(sc4nc(N5CCOCC5)nc(NC5CCOCC5)c34)C2)c(O)cc1O`, the inhibition at 1 µM with SW780 amounted to 38.9%; in the assay on T-24, 29.5%; with J82, 37.1%. In addition, the inhibition worked out at 33.7% in assay [1] and 38.2% at Heat shock protein HSP90.

Regarding `Cc1ccccc1NC(=O)Nc1ccc(-c2nc(N3CCOCC3)c3c4c(sc3n2)CN(C(=O)c2cc(C(C)C)c(O)cc2O)CC4)cc1`, the inhibition at 1 µM is 53.7% in the assay with SW780, 78% with T-24 and 66.2% in the assay on J82. Moreover, the results for the inhibition (in assay [1]; against Heat shock protein HSP90) were 68.2% and 62.6%, respectively.

Regarding `CC(C)c1cc(C(=O)N2CCc3c(sc4nc(-c5ccc(NC(=O)Nc6ccccc6Cl)cc5)nc(N5CCOCC5)c34)C2)c(O)cc1O`, the inhibition at 1 µM worked out at 88.8% in the assay on SW780, 73.8% in the assay on T-24 and 72.4% in the assay with J82. The inhibition in assay [1] amounted to 76.8%; on Heat shock protein HSP90, 64.5%.

Consider `CC(C)c1cc(C(=O)N2CCc3c(sc4nc(N5CCOCC5)nc(N5CCN(C)CC5)c34)C2)c(O)cc1O`, for which the values for the inhibition at 1 µM in the assay with SW780, with T-24 and with J82 were 44.9%, 40.9% and 37.2%, respectively. Also, the inhibition in assay [1] is 32.7%; against Heat shock protein HSP90, 40.8%.

On to `CC(C)c1cc(C(=O)N2CCc3c(sc4nc(N5CCCCC5)nc(N5CCOCC5)c34)C2)c(O)cc1O`, for which the inhibition at 1 µM in the assay with SW780 amounted to 49.5%; with T-24, 43.5%; in the assay with J82, 55%. For the same compound, the inhibition in assay [1] is 55.7%; against Heat shock protein HSP90 it was 46.6%.

For the compound `CC(C)c1cc(C(=O)N2CCc3c(sc4nc(NC5CCOCC5)nc(N5CCOCC5)c34)C2)c(O)cc1O`, the inhibition at 1 µM in the assay with SW780 worked out at 61%; with T-24 it was 49.7%; in the assay with J82, 57.6%. Further, the inhibition in assay [1] came out at 57.5%; against Heat shock protein HSP90, 58%.

For the compound `Cc1ccc(NC(=O)Nc2ccc(-c3nc(N4CCOCC4)c4c5c(sc4n3)CN(C(=O)c3cc(C(C)C)c(O)cc3O)CC5)cc2)cc1`, the inhibition at 1 µM with SW780 stood at 74.5%; in the assay with T-24, 67.8%; in the assay on J82, 65.8%. The inhibition in assay [1] is 71.8%; against Heat shock protein HSP90 it was 61.6%.

In the case of `CC(C)c1cc(C(=O)N2CCc3c(sc4nc(-c5ccc(NC(=O)Nc6cc(F)cc(F)c6)cc5)nc(N5CCOCC5)c34)C2)c(O)cc1O`, the inhibition at 1 µM in the assay with SW780 was determined as 53.5%; in the assay with T-24, 61.3%; with J82 it was 78%. Also, the inhibition in assay [1] stood at 70.5%; against Heat shock protein HSP90, 58.1%.

Consider `CC(C)c1cc(C(=O)N2CCc3c(sc4nc(N5CCOCC5)nc(N5CCC(F)(F)CC5)c34)C2)c(O)cc1O`, for which the inhibition at 1 µM in the assay on SW780 amounted to 52.1%; in the assay on T-24, 50.3%; with J82, 49.8%. For the same compound, the inhibition in assay [1] is 45.1%; at Heat shock protein HSP90, 43.6%.

Take `CC(C)c1cc(C(=O)N2CCc3c(sc4nc(N5CCN(C)CC5)nc(N5CCOCC5)c34)C2)c(O)cc1O`: the inhibition at 1 µM is 68% with SW780, 69.9% in the assay on T-24 and 59.2% with J82. Besides, the figures for the inhibition (in assay [1]; at Heat shock protein HSP90) were 62.6% and 63.8%, respectively.

In the case of `CC(C)c1cc(C(=O)N2CCc3c(sc4nc(NCCN5CCOCC5)nc(N5CCOCC5)c34)C2)c(O)cc1O`, the figures for the inhibition at 1 µM with SW780, in the assay on T-24 and with J82 were 55.2%, 78% and 72.2%, respectively. Also, the inhibition was determined as 68.2% in assay [1] and 62.1% against Heat shock protein HSP90.

Consider `CC(C)c1cc(C(=O)N2CCc3c(sc4nc(-c5ccc(NC(=O)Nc6ccc(C(F)(F)F)cc6)cc5)nc(N5CCOCC5)c34)C2)c(O)cc1O`, for which the inhibition at 1 µM in the assay with SW780 was 61.3%; in the assay on T-24 it was 61.3%; in the assay with J82, 69%. In addition, the inhibition turned out to be 66.4% in assay [1] and 62.8% on Heat shock protein HSP90.

Turning to `CC(C)c1cc(C(=O)N2CCc3c(sc4nc(N5CCOCC5)nc(N5CCOCC5)c34)C2)c(O)cc1O`, the inhibition at 1 µM in the assay on SW780 came out at 62.7%; in the assay on T-24, 44.8%; with J82, 65%. Also, the inhibition is 68.8% in assay [1] and 42.4% against Heat shock protein HSP90.

A word on the inhibition: it is the change of the read-out against control, counted positive when it falls.
